Assay results reported in patent US10100006B2, “Compound having immune disease treatment effect and use thereof” (THE CATHOLIC UNIVERSITY OF KOREA INDUSTRY—ACADEMIC …, priority 2014, dated 2018).

Tests used:
TNF-α = experiment: Inhibition of TNF-α production in anti-CD3 stimulated spleen cells of mouse, ELISA (Experimental Example 6); type: cell-based; conditions: spleen cells of DBA1/J normal mouse, anti mouse CD3 0.5 μg/ml, compound 200 and 500 μM; FIG. 24
Procedure: (§1) Furthermore, the inventors verified that inhibition degree of IL-17 and TNF-α as the inflammatory cytokines through an ELISA after treating anti mouse CD3 at a concentration of 0.5 μg/ml in the cells obtained from the spleen of a DBA1/J normal mouse group and commonly stimulating each compound at a concentration of 200 and 500 μM, in order to evaluating efficacy in an effect of inhibiting the inflammatory cytokines by targeting the compounds synthesized in Examples of the present invention.

IL-17 = experiment: Inhibition of IL-17 production in anti-CD3 stimulated spleen cells of mouse, ELISA (Experimental Example 6); type: cell-based; conditions: spleen cells of DBA1/J normal mouse, anti mouse CD3 0.5 μg/ml, compound 200 and 500 μM; FIG. 24
Procedure: as §1

Row | Compound | inhibition of TNF-α production (TNF-α) | inhibition of IL-17 production (IL-17)
1 | CCN(C(=N)NC(=N)N)c1ccc(Cl)cc1 [SD-566, N-(4-Chlorophenyl)-N-ethyl-biguanide] | simultaneously inhibiting the IL-17 and the TNF-α | simultaneously inhibiting the IL-17 and the TNF-α
2 | N=C(N)NC(=N)Nc1cccc(Cl)c1 [SD-564, N-(3-Chlorophenyl) biguanide] | simultaneously inhibiting the IL-17 and the TNF-α | simultaneously inhibiting the IL-17 and the TNF-α
3 | CCN(C(=N)NC(=N)N)c1ccccc1 [SD-573, N-Ethyl-N-phenyl biguanide] | simultaneously inhibiting the IL-17 and the TNF-α | simultaneously inhibiting the IL-17 and the TNF-α
4 | CCN(C(=N)NC(=N)N)c1ccc(Br)cc1 [SD-567, N-(4-Bromophenyl)-N-ethyl-biguanide] | simultaneously inhibiting the IL-17 and the TNF-α | simultaneously inhibiting the IL-17 and the TNF-α
5 | CCCN(C(=N)NC(=N)N)c1ccc(F)cc1F [SD-580, N-(2,4-Difluorophenyl)-N-propylbiguanide] | simultaneously inhibiting the IL-17 and the TNF-α | simultaneously inhibiting the IL-17 and the TNF-α
6 | CCN(C(=N)NC(=N)N)c1ccccc1F [SD-574, N-Ethyl-N-(2-fluorophenyl) biguanide] | simultaneously inhibiting the IL-17 and the TNF-α | simultaneously inhibiting the IL-17 and the TNF-α
7 | N=C(N)NC(=N)Nc1ccc(Br)cc1 [SD-563, N-(4-Bromophenyl) biguanide] | simultaneously inhibiting the IL-17 and the TNF-α | simultaneously inhibiting the IL-17 and the TNF-α
